Test results published in PubChem BioAssay (NCI).
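Following 48 hours of exposure in 96-well plates, responses at five concentrations were used to interpolate endpoints linearly. GI50: concentration for 50% inhibition of growth. TGI: total growth inhibition.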

Legend:
Assay in all cases: NCI-60 cell line screen, 48 h
[1] = tested on: CAKI-1 renal
[2] = tested on: HOP-62 NSCLC
[3] = tested on: MCF7 breast
[4] = tested on: NCI-H460 lung
[5] = tested on: RPMI-8226 leukemia
[6] = tested on: SF-295 CNS
[7] = tested on: SK-MEL-2 melanoma
[8] = tested on: UACC-257 melanoma
[9] = tested on: HCT-116 colon
[10] = tested on: NCI-H226 lung

**Q.** Which results are given for `CS(C)(=O)=Nn1c(=O)n2n(c1=O)C1c3ccccc3C2c2ccccc21`?
**A.** TGI [1]: > 100 µM; TGI [2]: > 100 µM; TGI [3]: > 100 µM; TGI [4]: > 100 µM; TGI [5]: > 100 µM; TGI [6]: > 100 µM; TGI [7]: > 100 µM; TGI [8]: > 100 µM

**Q.** For `Nc1cc(S(=O)(=O)O)cc2ccc(S(=O)(=O)O)cc12`, which TGI [1] is on record?
**A.** > 100 µM

**Q.** And the TGI [9]?
**A.** > 100 µM

**Q.** What about the TGI [2] of the same molecule?
**A.** > 100 µM

**Q.** What about the TGI [3] of the same molecule?
**A.** > 100 µM

**Q.** What about the TGI [4] of the same molecule?
**A.** > 100 µM

**Q.** And the TGI [5]?
**A.** > 100 µM

**Q.** What about the TGI [6] of the same molecule?
**A.** > 100 µM

**Q.** And the TGI [7]?
**A.** > 100 µM

**Q.** And the TGI [8]?
**A.** > 100 µM

**Q.** For `Cc1ccc2nc(-c3ccc(NC(=O)c4ccc(N)cc4)c(S(=O)(=O)O)c3)sc2c1`, which TGI [1] is on record?
**A.** > 100 µM

**Q.** And the TGI [9]?
**A.** > 100 µM

**Q.** What about the TGI [2] of the same molecule?
**A.** > 100 µM

**Q.** And the TGI [3]?
**A.** > 100 µM

**Q.** What about the TGI [10] of the same molecule?
**A.** > 100 µM

**Q.** And the TGI [4]?
**A.** > 100 µM

**Q.** And the TGI [5]?
**A.** > 100 µM

**Q.** What about the TGI [6] of the same molecule?
**A.** > 100 µM

**Q.** And the TGI [8]?
**A.** > 100 µM

**Q.** Which results are given for `N#Cc1ccccc1C#C/C=C\C#Cc1ccccc1N`?
**A.** GI50 [1]: 0.129 µM; TGI [1]: 0.634 µM; GI50 [3]: 67.9 µM; TGI [3]: > 100 µM; GI50 [10]: 6.6 µM; TGI [10]: > 38.5 µM; GI50 [4]: 5.43 µM; TGI [4]: > 100 µM; GI50 [5]: 2.28 µM; TGI [5]: > 93 µM; GI50 [6]: 1.28 µM; TGI [6]: 5.01 µM; GI50 [7]: 1.17 µM; TGI [7]: 8.2 µM; TGI [8]: > 22.8 µM

**Q.** Which TGI [1] does the source give for `Cn1c2[n+](c3nc(N)[nH]c(=O)c31)C1OC(C2)C(O)C1O` (stereo not drawn) here?
**A.** > 100 µM

**Q.** And the TGI [9]?
**A.** > 100 µM

**Q.** And the TGI [2]?
**A.** > 100 µM

**Q.** What about the TGI [10] of the same molecule?
**A.** > 100 µM

**Q.** And the TGI [6]?
**A.** > 100 µM

**Q.** And the TGI [7]?
**A.** > 100 µM

**Q.** What about the TGI [8] of the same molecule?
**A.** > 100 µM

**Q.** For `COc1ccc(-c2nn(-c3ccc(NC(=O)c4cc(Cl)cc(Cl)c4)cc3)cc2-c2ccncc2)cc1Cl`, which GI50 [1] is on record?
**A.** 3.04 µM

**Q.** And the TGI [1]?
**A.** > 100 µM

**Q.** And the GI50 [9]?
**A.** 7 µM

**Q.** What about the TGI [9] of the same molecule?
**A.** > 100 µM

**Q.** What about the GI50 [2] of the same molecule?
**A.** 8.12 µM

**Q.** What about the TGI [2] of the same molecule?
**A.** > 100 µM

**Q.** What about the GI50 [3] of the same molecule?
**A.** > 100 µM

**Q.** What about the TGI [3] of the same molecule?
**A.** > 100 µM

**Q.** What about the GI50 [10] of the same molecule?
**A.** > 100 µM

**Q.** And the TGI [10]?
**A.** > 100 µM

**Q.** What about the GI50 [4] of the same molecule?
**A.** 6.08 µM

**Q.** What about the TGI [4] of the same molecule?
**A.** > 100 µM

**Q.** And the GI50 [5]?
**A.** 0.494 µM

**Q.** What about the TGI [5] of the same molecule?
**A.** 3.26 µM

**Q.** What about the GI50 [6] of the same molecule?
**A.** 0.695 µM

**Q.** And the TGI [6]?
**A.** 5.49 µM

**Q.** What about the GI50 [7] of the same molecule?
**A.** 2.79 µM

**Q.** What about the TGI [7] of the same molecule?
**A.** > 100 µM

**Q.** What about the GI50 [8] of the same molecule?
**A.** > 100 µM

**Q.** What about the TGI [8] of the same molecule?
**A.** > 100 µM

**Q.** For `O=C(O)C1CCCCN1C(=O)Cc1c[nH]c2ccccc12` (stereo not drawn), which TGI [1] is on record?
**A.** > 100 µM

**Q.** What about the TGI [9] of the same molecule?
**A.** > 100 µM

**Q.** And the TGI [2]?
**A.** > 100 µM

**Q.** And the TGI [3]?
**A.** > 100 µM

**Q.** What about the TGI [10] of the same molecule?
**A.** > 100 µM

**Q.** And the TGI [4]?
**A.** > 100 µM

**Q.** What about the TGI [5] of the same molecule?
**A.** > 100 µM

**Q.** What about the TGI [6] of the same molecule?
**A.** > 100 µM

**Q.** What about the TGI [7] of the same molecule?
**A.** > 100 µM

**Q.** And the TGI [8]?
**A.** > 100 µM

**Q.** Which TGI [1] does the source give for `Cc1cc2ccc(OC(=O)c3ccc(N=C(N)N)cc3)cc2oc1=O` here?
**A.** > 100 µM

**Q.** And the TGI [9]?
**A.** 76.5 µM

**Q.** And the TGI [2]?
**A.** 48.5 µM

**Q.** What about the TGI [3] of the same molecule?
**A.** 54.9 µM

**Q.** And the TGI [10]?
**A.** 56.2 µM

**Q.** And the TGI [4]?
**A.** > 100 µM

**Q.** And the TGI [5]?
**A.** 55.1 µM

**Q.** What about the TGI [6] of the same molecule?
**A.** > 100 µM

**Q.** And the TGI [7]?
**A.** 60.9 µM

**Q.** What about the TGI [8] of the same molecule?
**A.** > 100 µM
